≈ marks a conversion by molar mass, not a printed value.

This experiment relates to Mycobacterium tuberculosis. The experiment is described as follows: Antibacterial activity against multidrug-resistant Mycobacterium tuberculosis H37Rv ATCC 27294 after 28 days by agar dilution method. It counts as functional. Particulars: H37Rv ATCC 27294, 672 h. (In agar dilution, organisms are placed on agar that contains the substance at set levels.)
One may read the MIC as the lowest concentration that inhibits growth of the organism. `NC(=O)c1cc(-c2ccccc2)sc1NC(=O)Nc1ccc(Br)cc1` returned an MIC of 15 µM (≈ 6.25 µg/mL).

As for `NC(=O)c1cc(-c2ccccc2)sc1NC(=O)Nc1ccc(Cl)cc1`, the MIC worked out at 8.42 µM (≈ 3.13 µg/mL).

Take `NC(=O)c1cc(-c2ccccc2)sc1NC(=O)Nc1ccc(F)cc1`: the MIC worked out at 17.6 µM (≈ 6.25 µg/mL).

`NC(=O)c1cc(-c2ccccc2)sc1NC(=O)Nc1ccc([N+](=O)[O-])cc1` displayed an MIC of 16.3 µM (≈ 6.24 µg/mL).

`NC(=O)c1cc(-c2ccccc2)sc1NC(=O)Nc1ccccc1` registered an MIC of 9.27 µM (≈ 3.13 µg/mL).

Molecule `Cc1ccc(NC(=O)Nc2sc(-c3ccccc3)cc2C(N)=O)cc1` came in with a minimal inhibitory concentration (MIC) of 35.6 µM (≈ 12.5 µg/mL).

Molecule `NC(=O)c1cc(-c2ccccc2)sc1NC(=O)NCc1ccccc1` showed a minimal inhibitory concentration (MIC) of 18.5 µM (≈ 6.5 µg/mL).

`CC(C)NC(=O)Nc1sc(-c2ccccc2)cc1C(N)=O` showed an MIC of 10.2 µM (≈ 3.11 µg/mL).

Molecule `NC(=O)c1cc(-c2ccccc2)sc1NC(=S)Nc1ccc(Br)cc1` gave a minimal inhibitory concentration (MIC) of 18 µM (≈ 7.78 µg/mL).

With `NC(=O)c1cc(-c2ccccc2)sc1NC(=S)Nc1ccc(Cl)cc1`, the MIC stood at 80.7 µM (≈ 31.3 µg/mL).

`NC(=O)c1cc(-c2ccccc2)sc1NC(=S)Nc1ccc(F)cc1` yielded an MIC of 67.4 µM (≈ 25 µg/mL).

In the case of `NC(=O)c1cc(-c2ccccc2)sc1NC(=S)Nc1ccc([N+](=O)[O-])cc1`, the MIC worked out at 78.5 µM (≈ 31.3 µg/mL).

Take `NC(=O)c1cc(-c2ccccc2)sc1NC(=S)Nc1ccccc1`: the MIC turned out to be 70.8 µM (≈ 25 µg/mL).

With `Cc1ccc(NC(=S)Nc2sc(-c3ccccc3)cc2C(N)=O)cc1`, the MIC was found to be 8.5 µM (≈ 3.12 µg/mL).

Molecule `NC(=O)c1cc(-c2ccccc2)sc1NC(=S)NCc1ccccc1` had an MIC of 34 µM (≈ 12.5 µg/mL).

With `CC(C)NC(=S)Nc1sc(-c2ccccc2)cc1C(N)=O`, inhibition of growth (MIC) required 19.6 µM (≈ 6.26 µg/mL).

Consider `NC(=O)c1cc(-c2ccccc2)sc1NC(=O)c1ccc(Cl)cc1`, for which the MIC worked out at 8.76 µM (≈ 3.13 µg/mL).

For `NC(=O)c1cc(-c2ccccc2)sc1NC(=O)c1ccc([N+](=O)[O-])cc1`, the MIC is 8.48 µM (≈ 3.12 µg/mL).

`NC(=O)c1cc(-c2ccccc2)sc1NC(=O)c1cccc2ccccc12` yielded an MIC of 25 µM (≈ 9.3 µg/mL).

`NC(=O)c1cc(-c2ccccc2)sc1NC(=O)c1cnccn1`: the lowest concentration to inhibit growth (MIC) was 38.6 µM (≈ 12.5 µg/mL).

`NC(=O)c1cc(-c2ccccc2)sc1NC(=O)c1cc2ccccc2[nH]1` came in with an MIC of 34.6 µM (≈ 12.5 µg/mL).

`NC(=O)c1cc(-c2ccccc2)sc1NC(=O)c1ccc(Oc2ccccc2)cc1` yielded an MIC of 15.1 µM (≈ 6.25 µg/mL).

Molecule `NC(=O)c1cc(-c2ccccc2)sc1NC(=O)c1ccccc1` showed an MIC of 4.84 µM (≈ 1.56 µg/mL).

`CC(=O)Nc1sc(-c2ccccc2)cc1C(N)=O` showed a minimum inhibitory concentration (MIC) of 24 µM (≈ 6.26 µg/mL).

`CCC(=O)Nc1sc(-c2ccccc2)cc1C(N)=O` had an MIC of 22.8 µM (≈ 6.26 µg/mL).

Take `CCCC(=O)Nc1sc(-c2ccccc2)cc1C(N)=O`: the lowest concentration to inhibit growth (MIC) was 10.8 µM (≈ 3.13 µg/mL).

Take `NC(=O)c1cc(-c2ccccc2)sc1NC(=O)C1CCCC1`: the MIC turned out to be 39.7 µM (≈ 12.5 µg/mL).

The molecule `NC(=O)c1cc(-c2ccccc2)sc1NC(=O)C1CCCCC1` gave an MIC of 9.48 µM (≈ 3.11 µg/mL).

As for `CC[C@@H](CO)NCCN[C@@H](CC)CO` [ETHAMBUTOL], the MIC is 7.64 µM (≈ 1.56 µg/mL).

`NNC(=O)c1ccncc1` [ISONIAZID] displayed an MIC of 0.66 µM (≈ 0.0905 µg/mL).

`CC1COc2c(N3CCN(C)CC3)c(F)cc3c(=O)c(C(=O)O)cn1c23` (configuration not stated) [OFLOXACIN] displayed an MIC of 2.16 µM (≈ 0.781 µg/mL).

In turn, `CO[C@H]1/C=C/O[C@@]2(C)Oc3c(C)c(O)c4c(O)c(c(/C=N/N5CCN(C)CC5)c(O)c4c3C2=O)NC(=O)/C(C)=C\C=C\[C@H](C)[C@H](O)[C@@H](C)[C@@H](O)[C@@H](C)[C@H](OC(C)=O)[C@@H]1C` [RIFAMPIN] returned an MIC of 0.23 µM (≈ 0.189 µg/mL).
